pEC50: −log10 of the molar value.
Assays:
β1 adrenergic receptor = molecular target: T1, β1 adrenergic receptor (Homo sapiens, UniProt P08588); assay: cAMP Gs dynamic HTRF assay, β1 expressing CHO cells; assay type: cell-based
T1 construct: expressed in transfected cells
Experimental: (§1) cAMP homogeneous time-resolved fluorescence (HTRF). Compound efficacy was determined using the cAMP Gs dynamic HTRF assay (Cisbio, catalog #62AM4PEC) largely following the manufacturer's instructions, also detailed below.
(§2) Compound preparation. […] Standard serial dilution curves were 10-point, 5-fold dilutions starting from a highest concentration of 10 μM. […] Assay plates were centrifuged at 500×g for 10 seconds. Compounds and IBMX were prepared at 2× final dose to compensate for addition of cells.
(§3) Cell preparation. […] Cells were harvested using assay PBS, counted manually by hemocytometer or by an automated cell counter, pelleted by centrifugation (200×g, 5 minutes) and resuspended in 37° C. […]
(§4) HTRF reagent addition, reading and data analysis. […] Plates were centrifuged again at 500×g for 10 seconds, and HTRF was measured using a Tecan Spark plate reader at 50 flashes per well. […] Potency estimates (EC50) were derived from the four-parameter nonlinear regression of the concentration-effect curve and an estimate of relative efficacy was determined by comparing the magnitude of the test compound HTRF signal window (min-max dose) with the signal window of the full agonist control, isoproterenol.

β2 adrenergic receptor = molecular target: T2, β2 adrenergic receptor (Homo sapiens, UniProt P07550); assay: cAMP Gs dynamic HTRF assay, β2 expressing CHO cells; assay type: cell-based
T2 construct: expressed in transfected cells
Experimental: as §1, §2, §3, §4

[1] = Microsomal stability (rat); assay type: in vitro ADME; details: rat liver microsomes 0.5 mg/mL; read-out: Microsomal stability (in vitro CLint), Rat
Experimental: (§5) The master solution was prepared as follows.
(§6) Two separate experiments were performed as follows:
(§7) With NADPH: 10 μL of 20 mg/mL liver microsomes and 40 μL of 10 mM NADPH were added to the incubations. The final concentrations of microsomes and NADPH were 0.5 mg/mL and 1 mM, respectively.
(§8) Without NADPH: 10 μL of 20 mg/mL liver microsomes and 40 μL of ultra-pure H2O were added to the incubations. The final concentration of microsomes was 0.5 mg/mL.
(§9) The reaction was started with the addition of 4 μL of 3, 10, 30 and 100 μM test compound solution or control compound solution at the final concentration of 0.03, 0.1, 0.3 and 1 μM and carried out at 37° C.
(§10) Aliquots of 50 μL were taken from the reaction solution at 0, 15, 30, 45 and 60 min. The reaction was stopped by the addition of 4 volumes of cold acetonitrile with IS (100 nM alprazolam, 200 nM labetalol, 200 nM caffeine and 2 μM ketoprofen). Samples were centrifuged at 3, 220 g for 40 minutes. Aliquot of 100 μL of the supernatant was mixed with 100 μL of ultra-pure H2O and then used for LC-MS/MS analysis. […]
(§11) Peak areas were determined from extracted ion chromatograms. The slope value, k, was determined by linear regression of the natural logarithm of the remaining percentage of the parent drug vs. incubation time curve.
(§12) The in vitro half-life (in vitro t1/2) was determined from the slope value: […]

[2] = Microsomal stability (human); assay type: in vitro ADME; details: human liver microsomes 0.5 mg/mL; read-out: Microsomal stability (in vitro CLint), Human
Experimental: as §5, §6, §7, §8, §9, §10, §11, §12

[3] = Microsomal stability (dog); assay type: in vitro ADME; details: dog liver microsomes 0.5 mg/mL; read-out: Microsomal stability (in vitro CLint), Dog
Experimental: as §5, §6, §7, §8, §9, §10, §11, §12

[4] = Rat pharmacokinetic study (plasma); assay type: in vivo, male SD rats; details: IV 1 mg/kg
Experimental: The rat pharmacokinetics studies of exemplary compounds 03-3, 03-5, and 03-115 were conducted with male SD rats. These rats were typically about 6-8 weeks old, weighing 200 g to 300 g. Animals were fasted overnight and free access to food 4 hours after dosing. A required volume of vehicle was added to reach the target concentration of the test article and vehicle component to prepare for the dosing. The dosing vehicle was PEG400 or 30% PEG400 in saline for IV, or 0.5% methylcellulose in water for PO. For IV dosing, the animals were administered intravenously via tail vein. For PO dosing, the animals were administered via oral gavage. After dosing, blood sample was collected (˜0.2 mL per time point) through jugular vein or heart puncture. Blood of each sample was transferred into plastic micro centrifuge tubes containing EDTA-K2. Collection tubes with blood samples and anticoagulant were inverted several times for proper mixing of the tube contents and then placed on wet ice. The blood samples were centrifuged at 2000 g for 5 minutes at 4° C. to obtain plasma which was stored in a freezer at −75±15° C. prior to analysis. Samples were analyzed using LC-MS/MS. WinNonlin were used for pharmacokinetic calculations.

T2 sequence (P07550 whole entry): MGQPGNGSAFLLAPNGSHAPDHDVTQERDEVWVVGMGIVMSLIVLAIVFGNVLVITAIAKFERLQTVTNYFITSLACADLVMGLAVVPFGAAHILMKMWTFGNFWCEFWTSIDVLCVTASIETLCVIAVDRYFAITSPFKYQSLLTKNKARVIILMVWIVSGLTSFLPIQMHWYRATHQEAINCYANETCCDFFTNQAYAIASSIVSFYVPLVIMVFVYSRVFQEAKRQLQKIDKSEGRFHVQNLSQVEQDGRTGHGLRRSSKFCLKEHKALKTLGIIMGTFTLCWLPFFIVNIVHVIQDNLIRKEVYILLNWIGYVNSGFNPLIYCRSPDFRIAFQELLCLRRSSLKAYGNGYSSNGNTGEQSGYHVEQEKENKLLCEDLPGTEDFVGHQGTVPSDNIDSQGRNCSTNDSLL
T1 sequence (P08588 whole entry): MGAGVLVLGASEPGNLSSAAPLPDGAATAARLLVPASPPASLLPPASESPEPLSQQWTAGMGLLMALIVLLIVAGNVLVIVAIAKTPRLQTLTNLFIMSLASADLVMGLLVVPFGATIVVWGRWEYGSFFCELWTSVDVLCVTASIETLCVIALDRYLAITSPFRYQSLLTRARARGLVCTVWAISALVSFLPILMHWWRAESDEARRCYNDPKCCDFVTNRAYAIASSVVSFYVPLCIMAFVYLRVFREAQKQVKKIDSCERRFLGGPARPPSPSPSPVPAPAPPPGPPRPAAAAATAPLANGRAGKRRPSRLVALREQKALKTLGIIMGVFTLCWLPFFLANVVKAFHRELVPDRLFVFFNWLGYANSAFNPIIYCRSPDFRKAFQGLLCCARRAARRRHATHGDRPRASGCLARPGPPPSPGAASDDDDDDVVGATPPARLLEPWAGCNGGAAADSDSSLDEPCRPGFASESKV

SMILES | pEC50 (β1 adrenergic receptor) | pEC50 (β2 adrenergic receptor) | microsomal CLint [1] | microsomal CLint [2] | microsomal CLint [3] | Vss_obs [4] | AUClast [4]
COc1ccc(C[C@@H](C)NC[C@H](O)c2ccc(C3CC3)nc2C)cc1 [Compound 03-269] | 7.00 to 8.00 | > 8.00 | – | – | – | – | –
CC(C)(C)NC[C@H](O)c1cccc(C#N)n1 [Compound 03-5, (S)-6-(2-(tert-butylamino)-1-hydroxyethyl)picolinonitrile] | – | – | 2.53 µL/min/mg | 2.96 µL/min/mg | 4.32 µL/min/mg | 1.89 L/kg | –
CC(C)(C)NC[C@H](O)c1cccc(C(F)(F)F)n1 [Compound 03-3] | – | – | 3.48 µL/min/mg | 3.49 µL/min/mg | 7.99 µL/min/mg | 2.92 L/kg | 546 ng·h/mL
